Results from patent publication US20250382344A1, “Soluble GLP1/GIP/NPY2 Receptor Triple Agonists” (Boehringer Ingelheim International GmH, priority 2024, published 2025).
Like-named read-outs stand apart in the source and are kept apart here.

How the values were obtained:
[1] = molecular target: T1, hGIPR (Homo sapiens, UniProt P48546); assay: hGIPR CreLuc assay in 0.5% and 100% plasma (CHO CRE-luciferase reporter cells); format: cell-based
T1 construct: expressed in transfected cells; host or cells: CHO CRE-luciferase reporter cells
T1 sequence (P48546 22-466): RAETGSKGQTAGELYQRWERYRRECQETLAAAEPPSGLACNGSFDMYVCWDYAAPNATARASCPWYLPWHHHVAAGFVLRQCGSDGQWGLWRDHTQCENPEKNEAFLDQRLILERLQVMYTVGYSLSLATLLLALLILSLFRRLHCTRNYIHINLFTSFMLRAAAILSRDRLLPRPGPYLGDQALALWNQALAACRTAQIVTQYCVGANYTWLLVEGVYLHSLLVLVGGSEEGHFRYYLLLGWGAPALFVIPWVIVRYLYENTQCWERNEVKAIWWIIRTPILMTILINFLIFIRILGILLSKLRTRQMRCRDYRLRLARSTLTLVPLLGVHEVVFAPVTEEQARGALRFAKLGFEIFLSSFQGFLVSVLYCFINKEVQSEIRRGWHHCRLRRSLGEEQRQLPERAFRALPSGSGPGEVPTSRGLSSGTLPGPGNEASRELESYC

[2] = Solubility in 0.1 M phosphate buffer at pH 7; format: physicochemical; conditions: 0.1 M phosphate buffer at pH 7, 10 mg/mL final peptide concentration, shaking 2 hours at room temperature, peptides as TFA-salts, measured sample pH 6.5-7.0; for solubility: read-out: Solubility
[3] = 0.5% human plasma, read-out: hGIPR 0.5% hP

CC[C@H](C)[C@H](NC(=O)[C@H](CC(C)C)NC(=O)[C@H](Cc1c[nH]cn1)NC(=O)[C@H](CCCNC(=N)N)NC(=O)[C@@H](NC(=O)[C@H](Cc1ccccc1)NC(=O)[C@H](C)NC(=O)C(C)(C)NC(=O)[C@H](CCC(N)=O)NC(=O)[C@H](C)NC(=O)[C@H](CCC(N)=O)NC(=O)[C@H](CC(C)C)NC(=O)[C@H](CCC(=O)O)NC(=O)[C@H](CC(C)C)NC(=O)C(C)(C)NC(=O)[C@@H](NC(=O)[C@H](CO)NC(=O)[C@H](Cc1ccc(O)cc1)NC(=O)[C@H](CC(=O)O)NC(=O)[C@H](CO)NC(=O)[C@@H](NC(=O)[C@H](Cc1ccccc1)NC(=O)[C@@H](NC(=O)CNC(=O)[C@H](CCC(=O)O)NC(=O)C(C)(C)NC(=O)[C@@H](N)Cc1ccc(O)cc1)[C@@H](C)O)[C@@H](C)O)[C@@H](C)CC)C(C)C)C(=O)N[C@@H](CC(N)=O)C(=O)N[C@@H](CCCCNC(=O)[C@@H](N)CCCCNC(=O)CC[C@H](NC(=O)CC[C@H](NC(=O)CC[C@H](NC(=O)CC[C@H](NC(=O)CC[C@H](NC(=O)CC[C@H](NC(=O)CCCCCCCCCCCCCCCCC(=O)O)C(=O)O)C(=O)O)C(=O)O)C(=O)O)C(=O)O)C(=O)O)C(=O)NC(C)(C)C(=O)N[C@H](C(=O)N[C@@H](CCCNC(=N)N)C(=O)N[C@@H](CCC(N)=O)C(=O)N[C@@H](CCCNC(=N)N)C(=O)N[C@@H](Cc1ccc(O)cc1)C(N)=O)[C@@H](C)O [Compound 65, Y-Aib-E-G-T-F-T-S-D-Y-S-I-Aib-L-E-L-Q-A-Q-Aib-A-F-V-R-H-L-I-N-K(1,3)-Aib-T-R-Q-R-Y-NH2.C18DA-gGlu-gGlu-gGlu-gGlu-gGlu-gGlu-eLys(1,2)]
EC50 [1, 3]: 700 pM | solubility at 2 h [2]: 3900 µg/mL

CC[C@H](C)[C@H](NC(=O)[C@H](CC(C)C)NC(=O)[C@H](Cc1c[nH]cn1)NC(=O)[C@H](CCCNC(=N)N)NC(=O)[C@@H](NC(=O)[C@H](Cc1ccccc1)NC(=O)[C@H](C)NC(=O)C(C)(C)NC(=O)[C@H](CCC(N)=O)NC(=O)[C@H](C)NC(=O)[C@H](CCC(N)=O)NC(=O)[C@H](CCCCN)NC(=O)[C@H](CCC(=O)O)NC(=O)[C@H](CC(C)C)NC(=O)C(C)(C)NC(=O)[C@@H](NC(=O)[C@H](CO)NC(=O)[C@H](Cc1ccc(O)cc1)NC(=O)[C@H](CC(=O)O)NC(=O)[C@H](CO)NC(=O)[C@@H](NC(=O)[C@H](Cc1ccccc1)NC(=O)[C@@H](NC(=O)CNC(=O)[C@H](CCC(=O)O)NC(=O)C(C)(C)NC(=O)[C@@H](N)Cc1ccc(O)cc1)[C@@H](C)O)[C@@H](C)O)[C@@H](C)CC)C(C)C)C(=O)N[C@@H](CC(N)=O)C(=O)N[C@@H](CCCCNC(=O)[C@@H](N)CCCCNC(=O)CC[C@H](NC(=O)CC[C@H](NC(=O)CC[C@H](NC(=O)CC[C@H](NC(=O)CC[C@H](NC(=O)CC[C@H](NC(=O)CCCCCCCCCCCCCCCCCCC(=O)O)C(=O)O)C(=O)O)C(=O)O)C(=O)O)C(=O)O)C(=O)O)C(=O)NC(C)(C)C(=O)N[C@H](C(=O)N[C@@H](CCCNC(=N)N)C(=O)N(C)[C@@H](CCC(N)=O)C(=O)N[C@@H](CCCNC(=N)N)C(=O)N[C@@H](Cc1ccc(O)cc1)C(N)=O)[C@@H](C)O [Compound 26, Y-Aib-E-G-T-F-T-S-D-Y-S-I-Aib-L-E-K-Q-A-Q-Aib-A-F-V-R-H-L-I-N-K(1,3)-Aib-T-R-NMeQ-R-Y-NH2.C20DA-gGlu-gGlu-gGlu-gGlu-gGlu-gGlu-eLys(1,2)]
EC50 [1, 3]: 300 pM | EC50 ([1]; 100% human plasma, read-out: hGIPR 100% hP): 5600 pM | solubility [2]: 9400 µg/mL

CC[C@H](C)[C@H](NC(=O)[C@H](CC(C)C)NC(=O)[C@H](Cc1c[nH]cn1)NC(=O)[C@H](CCCNC(=N)N)NC(=O)[C@@H](NC(=O)[C@H](Cc1ccccc1)NC(=O)[C@H](C)NC(=O)C(C)(C)NC(=O)[C@H](CCC(N)=O)NC(=O)[C@H](C)NC(=O)[C@H](CCC(N)=O)NC(=O)[C@H](C)NC(=O)[C@H](CCC(=O)O)NC(=O)[C@H](CC(C)C)NC(=O)C(C)(C)NC(=O)[C@@H](NC(=O)[C@H](CO)NC(=O)[C@H](Cc1ccc(O)cc1)NC(=O)[C@H](CC(=O)O)NC(=O)[C@H](CO)NC(=O)[C@@H](NC(=O)[C@H](Cc1ccccc1)NC(=O)[C@@H](NC(=O)CNC(=O)[C@H](CCC(=O)O)NC(=O)C(C)(C)NC(=O)[C@@H](N)Cc1ccc(O)cc1)[C@@H](C)O)[C@@H](C)O)[C@@H](C)CC)C(C)C)C(=O)N[C@@H](CC(N)=O)C(=O)N[C@@H](CCCCNC(=O)[C@@H](N)CCCCNC(=O)CC[C@H](NC(=O)CC[C@H](NC(=O)CC[C@H](NC(=O)CC[C@H](NC(=O)CC[C@H](NC(=O)CC[C@H](NC(=O)CCCCCCCCCCCCCCCCC(=O)O)C(=O)O)C(=O)O)C(=O)O)C(=O)O)C(=O)O)C(=O)O)C(=O)NC(C)(C)C(=O)N[C@H](C(=O)N[C@@H](CCCNC(=N)N)C(=O)N[C@@H](CCC(N)=O)C(=O)N[C@@H](CCCNC(=N)N)C(=O)N[C@@H](Cc1ccc(O)cc1)C(N)=O)[C@@H](C)O [Compound 123, Y-Aib-E-G-T-F-T-S-D-Y-S-I-Aib-L-E-A-Q-A-Q-Aib-A-F-V-R-H-L-I-N-K(1,3)-Aib-T-R-Q-R-Y-NH2.C18DA-gGlu-gGlu-gGlu-gGlu-gGlu-gGlu-eLys(1,2)]
EC50 [1, 3]: 300 pM | solubility at 2 h [2]: 4300 µg/mL

CC[C@H](C)[C@H](NC(=O)[C@H](CC(C)C)NC(=O)[C@H](Cc1c[nH]cn1)NC(=O)[C@H](CCCNC(=N)N)NC(=O)[C@@H](NC(=O)[C@H](Cc1ccccc1)NC(=O)[C@H](C)NC(=O)C(C)(C)NC(=O)[C@H](CCC(N)=O)NC(=O)[C@H](C)NC(=O)[C@H](CCC(N)=O)NC(=O)[C@H](CCCCN)NC(=O)[C@H](CCC(=O)O)NC(=O)[C@H](CC(C)C)NC(=O)C(C)(C)NC(=O)[C@@H](NC(=O)[C@H](CO)NC(=O)[C@H](Cc1ccc(O)cc1)NC(=O)[C@H](CC(=O)O)NC(=O)[C@H](CO)NC(=O)[C@@H](NC(=O)[C@H](Cc1ccccc1)NC(=O)[C@@H](NC(=O)CNC(=O)[C@H](CCC(=O)O)NC(=O)C(C)(C)NC(=O)[C@@H](N)Cc1ccc(O)cc1)[C@@H](C)O)[C@@H](C)O)[C@@H](C)CC)C(C)C)C(=O)N[C@@H](CC(N)=O)C(=O)N[C@@H](CCCCNC(=O)[C@@H](N)CCCCNC(=O)CC[C@H](NC(=O)CC[C@H](NC(=O)CC[C@H](NC(=O)CC[C@H](NC(=O)CC[C@H](NC(=O)CC[C@H](NC(=O)CCCCCCCCCCCCCCCCC(=O)O)C(=O)O)C(=O)O)C(=O)O)C(=O)O)C(=O)O)C(=O)O)C(=O)N[C@@H](C)C(=O)N[C@H](C(=O)N[C@@H](CCCNC(=N)N)C(=O)N[C@@H](CCC(N)=O)C(=O)N[C@@H](CCCNC(=N)N)C(=O)N[C@@H](Cc1ccc(O)cc1)C(N)=O)[C@@H](C)O [Compound 159, Y-Aib-E-G-T-F-T-S-D-Y-S-I-Aib-L-E-K-Q-A-Q-Aib-A-F-V-R-H-L-I-N-K(1,3)-A-T-R-Q-R-Y-NH2.C18DA-gGlu-gGlu-gGlu-gGlu-gGlu-gGlu-eLys(1,2)]
EC50 [1, 3]: 200 pM | solubility at 2 h [2]: 9600 µg/mL

CC[C@H](C)[C@H](NC(=O)[C@H](CC(C)C)NC(=O)[C@H](Cc1c[nH]cn1)NC(=O)[C@H](CCCNC(=N)N)NC(=O)[C@@H](NC(=O)[C@H](Cc1ccccc1)NC(=O)[C@H](CCC(=O)O)NC(=O)C(C)(C)NC(=O)[C@H](CCC(N)=O)NC(=O)[C@H](C)NC(=O)[C@H](CCC(N)=O)NC(=O)[C@H](CCCCN)NC(=O)[C@H](CCC(=O)O)NC(=O)[C@H](CC(C)C)NC(=O)C(C)(C)NC(=O)[C@@H](NC(=O)[C@H](CO)NC(=O)[C@H](Cc1ccc(O)cc1)NC(=O)[C@H](CC(=O)O)NC(=O)[C@H](CO)NC(=O)[C@@H](NC(=O)[C@H](Cc1ccccc1)NC(=O)[C@@H](NC(=O)CNC(=O)[C@H](CCC(=O)O)NC(=O)C(C)(C)NC(=O)[C@@H](N)Cc1ccc(O)cc1)[C@@H](C)O)[C@@H](C)O)[C@@H](C)CC)C(C)C)C(=O)N[C@@H](CC(N)=O)C(=O)N[C@@H](CCCCNC(=O)[C@@H](N)CCCCNC(=O)CC[C@H](NC(=O)CC[C@H](NC(=O)CC[C@H](NC(=O)CC[C@H](NC(=O)CC[C@H](NC(=O)CC[C@H](NC(=O)CCCCCCCCCCCCCCCCCCC(=O)O)C(=O)O)C(=O)O)C(=O)O)C(=O)O)C(=O)O)C(=O)O)C(=O)NC(C)(C)C(=O)N[C@H](C(=O)N[C@@H](CCCNC(=N)N)C(=O)N[C@@H](CCC(N)=O)C(=O)N[C@@H](CCCNC(=N)N)C(=O)N[C@@H](Cc1ccc(O)cc1)C(N)=O)[C@@H](C)O [Compound 149, Y-Aib-E-G-T-F-T-S-D-Y-S-I-Aib-L-E-K-Q-A-Q-Aib-E-F-V-R-H-L-I-N-K(1,3)-Aib-T-R-Q-R-Y-NH2.C20DA-gGlu-gGlu-gGlu-gGlu-gGlu-gGlu-eLys(1,2)]
EC50 [1, 3]: 600 pM | solubility [2]: 4900 µg/mL
